In US20190358196A1, “PI 4-KINASE INHIBITOR AS A THERAPEUTIC FOR VIRAL HEPATITIS, CANCER, MALARIA. AUTOIMMUNE DISORDERS AND INFLAMMATION, AND A RADIOSENSITIZER AND IMMUNOSUPPRESSANT” (priority 2016, published 2019):

Legend:
PI4Ka = PI4Ka (Homo sapiens, UniProt P42356); experiment: HotSpot lipid kinase inhibition assay
[1] = tested on: cell culture-derived HCV (HCVcc)

Sequence of PI4Ka (P42356 whole entry): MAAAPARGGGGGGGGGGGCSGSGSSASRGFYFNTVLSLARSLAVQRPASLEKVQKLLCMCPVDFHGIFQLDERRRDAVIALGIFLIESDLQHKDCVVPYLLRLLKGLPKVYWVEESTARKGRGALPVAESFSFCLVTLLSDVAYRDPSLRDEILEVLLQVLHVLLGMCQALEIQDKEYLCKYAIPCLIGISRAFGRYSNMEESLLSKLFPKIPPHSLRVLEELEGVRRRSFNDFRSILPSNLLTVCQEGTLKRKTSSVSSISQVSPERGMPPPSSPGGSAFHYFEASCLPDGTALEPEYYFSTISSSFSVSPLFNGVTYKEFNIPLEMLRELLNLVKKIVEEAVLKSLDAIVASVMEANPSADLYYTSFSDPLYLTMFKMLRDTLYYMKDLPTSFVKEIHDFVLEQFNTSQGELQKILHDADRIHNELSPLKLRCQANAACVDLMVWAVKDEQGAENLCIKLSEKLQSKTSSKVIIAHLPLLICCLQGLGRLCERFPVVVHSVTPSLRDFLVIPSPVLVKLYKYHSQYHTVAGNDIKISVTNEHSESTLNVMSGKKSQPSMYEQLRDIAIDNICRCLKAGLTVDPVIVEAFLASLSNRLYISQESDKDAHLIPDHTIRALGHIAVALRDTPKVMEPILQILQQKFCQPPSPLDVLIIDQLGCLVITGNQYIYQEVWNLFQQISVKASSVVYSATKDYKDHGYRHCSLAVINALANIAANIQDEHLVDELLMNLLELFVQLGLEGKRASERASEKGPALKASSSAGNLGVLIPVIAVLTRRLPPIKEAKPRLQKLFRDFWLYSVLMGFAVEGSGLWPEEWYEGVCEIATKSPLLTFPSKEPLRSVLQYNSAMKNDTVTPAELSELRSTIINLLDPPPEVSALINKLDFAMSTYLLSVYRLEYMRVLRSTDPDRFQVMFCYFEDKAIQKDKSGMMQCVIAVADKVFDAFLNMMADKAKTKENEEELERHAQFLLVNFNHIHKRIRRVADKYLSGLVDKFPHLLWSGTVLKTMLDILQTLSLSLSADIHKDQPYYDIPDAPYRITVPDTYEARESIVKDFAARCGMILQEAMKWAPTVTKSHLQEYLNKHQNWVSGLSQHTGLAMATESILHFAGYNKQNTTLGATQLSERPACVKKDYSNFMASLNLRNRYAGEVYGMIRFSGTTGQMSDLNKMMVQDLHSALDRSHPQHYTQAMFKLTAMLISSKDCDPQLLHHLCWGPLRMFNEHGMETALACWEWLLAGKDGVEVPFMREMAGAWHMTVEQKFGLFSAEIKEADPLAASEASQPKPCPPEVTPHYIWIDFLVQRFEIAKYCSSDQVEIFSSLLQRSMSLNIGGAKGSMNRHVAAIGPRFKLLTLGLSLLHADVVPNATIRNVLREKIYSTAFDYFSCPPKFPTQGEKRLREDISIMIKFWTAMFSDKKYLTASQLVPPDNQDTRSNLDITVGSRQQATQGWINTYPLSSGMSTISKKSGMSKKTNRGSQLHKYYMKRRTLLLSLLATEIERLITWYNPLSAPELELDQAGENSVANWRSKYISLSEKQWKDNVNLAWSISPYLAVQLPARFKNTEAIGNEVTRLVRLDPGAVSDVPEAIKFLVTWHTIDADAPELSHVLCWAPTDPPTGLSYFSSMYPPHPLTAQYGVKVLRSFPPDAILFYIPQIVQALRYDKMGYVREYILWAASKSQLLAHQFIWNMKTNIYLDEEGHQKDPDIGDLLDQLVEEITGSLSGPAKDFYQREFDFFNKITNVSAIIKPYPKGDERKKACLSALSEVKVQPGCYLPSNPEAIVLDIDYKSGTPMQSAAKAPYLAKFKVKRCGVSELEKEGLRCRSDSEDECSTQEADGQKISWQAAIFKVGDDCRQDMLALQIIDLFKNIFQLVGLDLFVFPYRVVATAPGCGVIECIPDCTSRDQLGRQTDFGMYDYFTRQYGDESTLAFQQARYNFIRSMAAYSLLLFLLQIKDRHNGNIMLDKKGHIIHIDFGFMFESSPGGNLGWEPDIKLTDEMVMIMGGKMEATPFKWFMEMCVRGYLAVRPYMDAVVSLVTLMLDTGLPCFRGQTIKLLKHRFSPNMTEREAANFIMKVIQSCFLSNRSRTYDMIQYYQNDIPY

| IC50 (PI4Ka) [µM] | Compound | SI (CC50/EC50) [1] |
| --- | --- | --- |
| 0.322 | Oc1cccc(-c2nc(N3CCOCC3)c3oc4ncccc4c3n2)c1 [PI-103] | – |
| – | Human interferon alpha-2b [rIFNa-2b] | >15.9 |
